In paper PMC11636681, “Pharmacokinetics and pharmacodynamics of antibacterial peptide NZX in Staphylococcus aureus mastitis mouse model” (Applied Microbiology and Biotechnology, 2024):
Marks after values point to notes of the source that are not given here. Positions of bridges follow the written chain, without caps; N, C: chain ends. Residues, ends and D or L forms follow the SMILES beside them.

Tests used:
S. aureus ATCC 43300 [1] = experiment: Cell membrane permeability, PI staining by flow cytometry; type: cell-based, Staphylococcus aureus
Description: Flow cytometry was used for the analysis of the effects of NZX on the penetration rate of the S. aureus cell membrane (Yang et al. [2019]). The S. aureus cells in mid-log phase were adjusted to 1 × 10^8 CFU/mL and the bacteria suspensions were treated with 1 × , 2 × and 4 × MIC of NZX for 2 h at 37 °C. In addition, the cell suspensions were incubated with 2 × MIC of NZX for 0 h, 0.5 h, 1 h and 2 h, respectively. After incubation, the cells were centrifuged at 4000 rpm at 4 °C for 5 min, washed twice with sterile PBS, and pellets were resuspended in 1 mL of PBS. Next, cells were stained with 50 µg/mL propidium iodide (PI) for 30 min in the dark at room temperature, and the proportion of cells with PI positive cells to the total cells were analyzed by flow-cytometry (BD, USA). Lincomycin and ceftiofur were used as positive controls and PBS as negative control. Three replicates for each treatment were conducted.

S. aureus ATCC 43300 [2] = experiment: In vitro dose-killing curves (24 h); type: cell-based, Staphylococcus aureus
Description: The in vitro dose-killing curves of NZX against the test S. aureus strains were conducted as previous described (Brinch et al. [2010]), with some modification. The S. aureus cells in mid-log phage were diluted. Then, the killing curves of NZX against S. aureus strains were carried out in the 48-well plate. Specifically, a volume of 50 μL NZX (0.6–150 μM) was mixed with 450 μL of the above diluted bacterial suspension (5 × 10^5 CFU/mL), and the mixtures were incubated in the Micro Oscillator for 24 h (600 rpm, 37 °C). Subsequently, the bacteria suspensions were plated on MHA medium to count. Lincomycin and ceftiofur were set as antibiotic controls, respectively. PBS was negative control. Results were expressed as the average of three independent experiments data.

S. aureus ATCC 43300 [3] = experiment: Mouse mastitis model, bacterial counts in mammary tissues; type: in vivo; conditions: 24 h after treatment, vs PC group
Excerpt: The 7 to 8-weeks old ICR mice (80 females, 40 males) were housed in independent ventilated cages, and feed with autoclaved laboratory food and water. Female mice in heat were put into the cage of males (females:males, 2:1) overnight and checked for vaginal plugs at the following morning to induce pregnancy. ICR-lactating mice were used at 6 to 8 days after the birth of the offspring. The mouse mastitis model was established as previously described (Li et al. [2017]). Mice were randomly divided into nine groups: NC group (uninfected group), PC group (infected but without treatment), NZX groups (25, 50, 100, 200 and 400 μg/gland, respectively), lincomycin group (100 μg/gland), and ceftiofur group (100 μg/gland). Each experimental group has six independent experiments with three mice. Specially, the pups were removed 1 h before the intramammary injection of both L4 (on the left) and R4 (on the right) abdominal mammal glands. A 100 μL of S. aureus strains (1 × 10^6 CFU/mL) was administrated to mice in PC, NZX, lincomycin and ceftiofur groups, and the same volume of sterile physiological saline was administrated to mice in NC group. Glands of 3 h post-infection were injected with sterile physiological saline, NZX, lincomycin, or ceftiofur. The mice were euthanized after the treatment for 24 h, and their mammary glands were dissected, weighed, and homogenized. The animal experiments were performed according to the Animal Care and Use Committee of the Feed Research Institute, Chinese Academy of Agricultural Sciences (Permit Number: AEC-CAAS-20090609) in accordance with the Guidelines for Animal Experimentation.
After mouse sacrifice, one part of mammary tissue was taken for bacterial count, and the other part was used for the histopathological analysis. Specifically, tissues were aseptically collected immediately from the dead mice, weighted, homogenized with sterile physiological saline (1:1, W:V). Next, the homogenates were serially diluted (ten-fold dilutions) in physiological saline, plated on MHA plate, and then cultured overnight at 37 °C. The bacterial number on each plate was counted and the results were expressed as Log10 CFU per gram of mammary tissues. In addition, mammary tissues were fixed in 4% paraformaldehyde, then embedded in paraffin, cut into 5 μm sections, and later stained by hematoxylin–eosin (H&E). The stained sections were observed under a light microscope (× 200) for pathological morphology and scoring of mammary tissues (Schmidt et al. [1992]).

S. aureus ATCC 43300 [4] = conditions: 1 × 10^5 CFU/mL, 16–18 h, 37 °C, value marked a, already published, ref Zheng et al. [2022]; cited from earlier work
Excerpt: Table 1 The MICs, MBCs and MPCs of NZX and antibiotics against S. aureus strains (μM) | column: S. aureus ATCC 43300 / MIC

[5] = 2 × MIC, range over 0, 0.5, 1 and 2 h
[6] = 2 h, range over 1 × MIC, 2 × MIC and 4 × MIC

Row | SMILES | percentage of PI-positive cells (S. aureus ATCC 43300 [1]; [5]) | percentage of PI-positive cells (S. aureus ATCC 43300 [1]; [6]) | EC50 (S. aureus ATCC 43300 [2]; Staphylococcus aureus, ATCC43300, 50% reduction in Log10 CFU at 24 h between minimum and maximum) | Cs (S. aureus ATCC 43300 [2]; concentration causing no apparent growth in Log10 CFU at 24 h vs initial inoculum) | bacteria reduction in mammary tissues (S. aureus ATCC 43300 [3]; 100 μg/gland intramammary) | MIC (S. aureus ATCC 43300 [4]) | bacteria reduction in mammary tissues (S. aureus ATCC 43300 [3]; 400 μg/gland intramammary) | bacteria reduction in mammary tissues (S. aureus ATCC 43300 [3]; range over 25 ~ 400 μg/gland intramammary)
1 | CO/N=C(\C(=O)N[C@@H]1C(=O)N2C(C(=O)O)=C(CSC(=O)c3ccco3)CS[C@H]12)c1csc(N)n1 [Ceftiofur] | 1.82–24.20% | 15.5–15.8% | 910 nM | 0.91 µM | 4.82 Log10 CFU/g |  |  | 
2 | CC[C@H](C)[C@@H]1NC(=O)[C@H](CO)NC(=O)[C@H](CCCCN)NC(=O)[C@@H]2CSSC[C@@H](C(=O)N[C@@H](Cc3ccc(O)cc3)C(=O)O)NC(=O)[C@H](CCCCN)NC(=O)[C@@H]3CSSC[C@H](NC(=O)[C@H](CCC(N)=O)NC(=O)[C@H]([C@@H](C)CC)NC(=O)[C@H](CC(=O)O)NC(=O)[C@H](CC(=O)O)NC(=O)[C@H](CCC(=O)O)NC(=O)[C@H](CO)NC(=O)[C@H](Cc4c[nH]c5ccccc45)NC(=O)[C@@H]4CCCN4C(=O)CNC(=O)[C@H](CC(N)=O)NC(=O)[C@@H](NC(=O)CNC(=O)[C@H](Cc4ccccc4)NC(=O)CN)CSSC[C@H](NC(=O)[C@H](Cc4ccc(O)cc4)NC(=O)CNC(=O)CNC(=O)[C@H](CCCCN)NC(=O)[C@H](Cc4ccc(O)cc4)NC(=O)CNC(=O)[C@H](CCCCN)NC1=O)C(=O)N[C@@H](C)C(=O)N[C@@H](CCCNC(=N)N)C(=O)NCC(=O)NCC(=O)N[C@@H](Cc1ccccc1)C(=O)N[C@@H](C(C)C)C(=O)N3)C(=O)N[C@@H](Cc1c[nH]cn1)C(=O)N[C@@H](CC(N)=O)C(=O)N[C@@H](Cc1c[nH]cn1)C(=O)N2 [NZX] (H-GFGCNGPWSEDDIQCHNHCKSIKGYKGGYCARGGFVCKCY-OH; disulfide 4-30, 15-37, 19-39; N-terminus and C-terminus assumed) | 1.91 to 75.17% | 57.1–75.1% |  |  | 3.47 Log10 CFU/g | 0.23^a μM | 8.81 Log10 CFU/g | 0.66 ~ 8.81 Log10 CFU/g
